In PubChem BioAssay (NCI):
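These data come from cells grown in 96-well plates and exposed to compound for 48 hours at five concentrations. TGI denotes the concentration required for complete inhibition of growth.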

Tests used:
Assay in all cases: NCI-60 cell line screen, 48 h
[1] = test system: DMS 114 small cell lung
[2] = test system: DMS 273 small cell lung
[3] = test system: U251 CNS
[4] = test system: HOP-92 NSCLC
[5] = test system: LXFL 529 NSCLC
[6] = test system: IGROV1 ovarian
[7] = test system: EKVX NSCLC
[8] = test system: KM12 colon
[9] = test system: K-562 leukemia
[10] = test system: UACC-257 melanoma
[11] = test system: HT29 colon
[12] = test system: HOP-62 NSCLC
[13] = test system: HCT-116 colon
[14] = test system: MALME-3M melanoma
[15] = test system: UO-31 renal
[16] = test system: OVCAR-3 ovarian
[17] = test system: SNB-75 CNS
[18] = test system: SNB-78 CNS
[19] = test system: A498 renal
[20] = test system: SF-539 CNS
[21] = test system: SK-MEL-28 melanoma
[22] = test system: COLO 205 colon
[23] = test system: NCI-H23 lung
[24] = test system: OVCAR-4 ovarian
[25] = test system: LOX IMVI melanoma
[26] = test system: SNB-19 CNS
[27] = test system: HOP-18 NSCLC
[28] = test system: SK-MEL-2 melanoma
[29] = test system: MOLT-4 leukemia
[30] = test system: HL-60(TB) leukemia
[31] = test system: M19-MEL melanoma
[32] = test system: NCI-H460 lung
[33] = test system: 786-0 renal
[34] = test system: SW-620 colon
[35] = test system: UACC-62 melanoma
[36] = test system: CAKI-1 renal
[37] = test system: SN12C renal
[38] = test system: OVCAR-5 ovarian
[39] = test system: SF-295 CNS
[40] = test system: M14 melanoma
[41] = test system: XF 498 CNS
[42] = test system: SK-MEL-5 melanoma
[43] = test system: SK-OV-3 ovarian
[44] = test system: OVCAR-8 ovarian
[45] = test system: A549 NSCLC
[46] = test system: RPMI-8226 leukemia
[47] = test system: TK-10 renal
[48] = test system: ACHN renal
[49] = test system: RXF 393 renal
[50] = test system: CCRF-CEM leukemia
[51] = test system: HCC-2998 colon
[52] = test system: SF-268 CNS
[53] = test system: DLD-1 colon
[54] = test system: HCT-15 colon
[55] = test system: NCI-H226 lung
[56] = test system: KM20L2 colon
[57] = test system: NCI-H522 lung
[58] = test system: SR leukemia

Compound: CCC(C)NC1=C(NC(C)=O)C(=O)c2ccccc2C1=O (stereo not drawn)
- TGI [1]: > 75 µM
- TGI [2]: > 75 µM
- TGI [3]: > 75 µM
- TGI [4]: > 75 µM
- TGI [5]: > 75 µM
- TGI [6]: > 75 µM
- TGI [7]: > 75 µM
- TGI [8]: > 75 µM
- TGI [9]: > 75 µM
- TGI [10]: > 75 µM
- TGI [11]: > 75 µM
- TGI [12]: > 75 µM
- TGI [13]: > 75 µM
- TGI [14]: > 75 µM
- TGI [15]: > 75 µM
- TGI [16]: > 75 µM
- TGI [17]: > 75 µM
- TGI [18]: > 75 µM
- TGI [19]: > 75 µM
- TGI [20]: > 75 µM
- TGI [21]: > 75 µM
- TGI [22]: > 75 µM
- TGI [23]: > 75 µM
- TGI [24]: > 75 µM
- TGI [25]: 40 µM
- TGI [26]: > 75 µM
- TGI [27]: > 75 µM
- TGI [28]: > 75 µM
- TGI [29]: > 75 µM
- TGI [30]: 43.1 µM
- TGI [31]: > 75 µM
- TGI [32]: > 75 µM
- TGI [33]: > 7.5 µM
- TGI [34]: > 75 µM
- TGI [35]: > 75 µM
- TGI [36]: > 75 µM
- TGI [37]: > 75 µM
- TGI [38]: > 75 µM
- TGI [39]: > 75 µM
- TGI [40]: > 75 µM
- TGI [41]: > 75 µM
- TGI [42]: > 75 µM
- TGI [43]: > 75 µM
- TGI [44]: > 75 µM
- TGI [45]: > 75 µM
- TGI [46]: 37.9 µM
- TGI [47]: > 75 µM
- TGI [48]: > 75 µM
- TGI [49]: > 75 µM
- TGI [50]: > 75 µM
- TGI [51]: > 75 µM
- TGI [52]: > 75 µM
- TGI [53]: > 75 µM
- TGI [54]: > 75 µM
- TGI [55]: > 75 µM
- TGI [56]: > 75 µM

Compound: COC(=O)C(Cc1nc2ccc(Cl)cc2[nH]c1=O)/C(=N/O)C(=O)Nc1cccc(Cl)c1C (stereo not drawn)
- TGI [1]: > 100 µM
- TGI [2]: > 100 µM
- TGI [3]: > 100 µM
- TGI [57]: > 100 µM
- TGI [5]: > 100 µM
- TGI [6]: > 100 µM
- TGI [7]: > 100 µM
- TGI [8]: > 100 µM
- TGI [9]: > 100 µM
- TGI [10]: > 100 µM
- TGI [11]: > 100 µM
- TGI [12]: > 100 µM
- TGI [13]: > 100 µM
- TGI [14]: > 100 µM
- TGI [15]: > 100 µM
- TGI [16]: > 100 µM
- TGI [17]: > 100 µM
- TGI [18]: > 100 µM
- TGI [19]: > 100 µM
- TGI [20]: > 100 µM
- TGI [21]: > 100 µM
- TGI [22]: > 100 µM
- TGI [23]: > 100 µM
- TGI [24]: > 100 µM
- TGI [25]: > 100 µM
- TGI [26]: > 100 µM
- TGI [27]: > 100 µM
- TGI [28]: > 100 µM
- TGI [29]: > 100 µM
- TGI [30]: > 100 µM
- TGI [31]: > 100 µM
- TGI [32]: > 100 µM
- TGI [33]: > 100 µM
- TGI [34]: > 100 µM
- TGI [35]: > 100 µM
- TGI [36]: > 100 µM
- TGI [37]: > 100 µM
- TGI [38]: > 100 µM
- TGI [58]: > 100 µM
- TGI [39]: > 100 µM
- TGI [40]: > 100 µM
- TGI [41]: > 100 µM
- TGI [42]: > 100 µM
- TGI [43]: > 100 µM
- TGI [44]: > 100 µM
- TGI [45]: > 100 µM
- TGI [46]: > 100 µM
- TGI [47]: > 100 µM
- TGI [48]: > 100 µM
- TGI [49]: > 100 µM
- TGI [50]: > 100 µM
- TGI [51]: > 100 µM
- TGI [52]: > 100 µM
- TGI [53]: > 100 µM
- TGI [54]: > 100 µM
- TGI [55]: > 100 µM
- TGI [56]: > 100 µM
